Experimental data taken from patent publication EP0838465A1, “Pyridinium-substituted (lactamylvinyl)cephalosporin derivatives, their preparation and their use as antibiotics” (F. HOFFMANN-LA ROCHE AG, priority 1996, dated 1998).
≈ marks a conversion by molar mass, not a printed value.

Key:
S.aureus 42080 (MRSA) = test: In vitro activity, minimum inhibitory concentration by agar dilution method in Mueller Hinton agar; type: cell-based; settings: Staphylococcus aureus, agar dilution method on Mueller-Hinton agar, inoculum 10^4 CFU/spot
Method: (§1) In vitro activity was determined by minimum inhibitory concentration in a microorganism spectum by the agar dilution method in Mueller Hinton agar.
(§2) The antibacterial Spectrum appears below: • MIC : Minimum Inhibiting Concentration Values

S.aureus 6538 (MSSA) = test: as above; type: cell-based; settings: Staphylococcus aureus, agar dilution method on Mueller-Hinton agar, inoculum 10^4 CFU/spot
Method: as §1, §2

MRSA (n=17) = test: In vitro activity, MIC90 by agar dilution method in Mueller Hinton agar; type: cell-based, S. aureus; settings: Staphylococcus aureus, agar dilution method on Mueller-Hinton agar, inoculum 10^5 CFU/spot
Method: as §1, §2

Structure (SMILES) | MIC (S.aureus 42080 (MRSA)) [µg/mL] | MIC (S.aureus 6538 (MSSA)) [µg/mL] | MIC90 (MRSA (n=17)) [µg/mL]
COc1cc(NC(=O)C[n+]2ccc(CN3CC/C(=C\C4=C(C(=O)[O-])N5C(=O)[C@@H](NC(=O)/C(=N\O)c6csc(N)n6)[C@H]5SC4)C3=O)cc2)ccc1O [F, (6R,7R)-7-[(Z)-2-(2-Amino-thiazol-4-yl)-2-hydroxyimino-acetylamino]-3-[(E)-1-[1-[(4-hydroxy-3-methoxy-phenylcarbamoyl)-methyl]-pyridin-1-ium-4-ylmethyl]-2-oxo-pyrrolidin-3-ylidenemethyl]-8-oxo-5-thia-1-aza-bicyclo[4.2.0]oct-2-ene-2-carboxylate] | 8 (≈ 10.9 µM) | 1 (≈ 1.36 µM) | 8 (≈ 10.9 µM)
Nc1nc(/C(=N/O)C(=O)N[C@@H]2C(=O)N3C(C(=O)[O-])=C(/C=C4\CCN(Cc5cc[n+](CC(=O)Nc6ccc(O)c(F)c6)cc5)C4=O)CS[C@H]23)cs1 [C, (6R,7R)-7-[(Z)-2-(2-Amino-thiazol-4-yl)-2-hydroxyimino-acetylamino]-3-[(E)-1-[1-[(3-fluoro-4-hydroxy-phenylcarbamoyl)-methyl]-pyridin-1-ium-4-ylmethyl]-2-oxo-pyrrolidin-3-ylidenemethyl]-8-oxo-5-thia-1-aza-bicyclo[4.2.0]oct-2-ene-2-carboxylate] | 4 (≈ 5.53 µM) | 1 (≈ 1.38 µM) | 4 (≈ 5.53 µM)
Nc1nc(/C(=N/O)C(=O)N[C@@H]2C(=O)N3C(C(=O)[O-])=C(/C=C4\CCN(Cc5cc[n+](CC(=O)Nc6ccc(O)cc6)cc5)C4=O)CS[C@H]23)ns1 [B, (6R,7R)-7-[(Z)-2-(5-Amino-[1,2,4]thiadiazol-3-yl)-2-hydroxyimino-acetylamino]-3-[(E)-1-[1-[(4-hydroxy-phenylcarbamoyl)-methyl]-pyridin-1-ium-4-ylmethyl]-2-oxo-pyrrolidin-3-ylidenemethyl]-8-oxo-5-thia-1-aza-bicyclo[4.2.0]-oct-2-ene-2-carboxylate] | 4 (≈ 5.67 µM) | 0.5 (≈ 0.708 µM) | 4 (≈ 5.67 µM)
Nc1nc(/C(=N/O)C(=O)N[C@@H]2C(=O)N3C(C(=O)[O-])=C(/C=C4\CCN(Cc5cc[n+](CC(=O)Nc6ccc(O)c(F)c6)cc5)C4=O)CS[C@H]23)ns1 [D, (6R,7R)-7-[(Z)-2-(5-Amino-[1,2,4]thiadiazol-3-yl)-2-hydroxyimino-acetylamino]-3-[(E)-1-[1-[(3-fluoro-4-hydroxy-phenylcarbamoyl)-methyl]-pyridin-1-ium-4-ylmethyl]-2-oxo-pyrrolidin-3-ylidenemethyl]-8-oxo-5-thia-1-aza-bicyclo[4.2.0]oct-2-ene-2-carboxylate] | 4 (≈ 5.53 µM) | 1 (≈ 1.38 µM) | 4 (≈ 5.53 µM)
Nc1nc(/C(=N/O)C(=O)N[C@@H]2C(=O)N3C(C(=O)[O-])=C(/C=C4\CCN(Cc5cc[n+](CC(=O)Nc6ccc(O)cc6)cc5)C4=O)CS[C@H]23)cs1 [A, (6R,7R)-7-[(Z)-2-(2-Amino-thiazol-4-yl)-2-hydroxyimino-acetylamino]-3-[(E)-1-[1-[(4-hydroxy-phenylcarbamoyl)-methyl]-pyridin-1-ium-4-ylmethyl]-2-oxo-pyrrolidin-3-ylidenemethyl]-8-oxo-5-thia-1-aza-bicyclo[4.2.0]oct-2-ene-2-carboxylate] | 4 (≈ 5.68 µM) | 0.5 (≈ 0.709 µM) | 8 (≈ 11.4 µM)
Nc1nc(/C(=N/O)C(=O)N[C@@H]2C(=O)N3C(C(=O)[O-])=C(/C=C4\CCN(Cc5ccc[n+](CC(=O)Nc6ccc(O)c(F)c6)c5)C4=O)CS[C@H]23)cs1 [G, (6R,7R)-7-[(Z)-2-(2-Amino-thiazol-4-yl)-2-hydroxyimino-acetylamino]-3-[(E)-1-[1-[(3-fluoro-4-hydroxy-phenylcarbamoyl)-methyl]-pyridin-1-ium-3-ylmethyl]-2-oxo-pyrrolidin-3-ylidenemethyl]-8-oxo-5-thia-1-aza-bicyclo[4.2.0]oct-2-ene-2-carboxylate] | 4 (≈ 5.53 µM) | 0.5 (≈ 0.692 µM) | 8 (≈ 11.1 µM)
Nc1nc(/C(=N/O)C(=O)N[C@@H]2C(=O)N3C(C(=O)[O-])=C(/C=C4\CCN(Cc5cc[n+](CC(=O)Nc6ccc(O)c(Cl)c6)cc5)C4=O)CS[C@H]23)cs1 [E, (6R,7R)-7-[(Z)-2-(2-Amino-thiazol-4-yl)-2-hydroxyimino-acetylamino]-3-[(E)-1-[1-[(3-chloro-4-hydroxy-phenylcarbamoyl)-methyl]-pyridin-1-ium-4-ylmethyl]-2-oxo-pyrrolidin-3-ylidenemethyl]-8-oxo-5-thia-1-aza-bicyclo[4.2.0]oct-2-ene-2-carboxylate] | 4 (≈ 5.41 µM) | 0.5 (≈ 0.676 µM) | 8 (≈ 10.8 µM)
